These results are taken from US8598374B2, “GPR120 receptor agonists and uses thereof” (Metabolex, Inc, priority 2008, dated 2013).

The test system of one assay is C57BL/6J mice. In words: Oral glucose tolerance test. The conditions noted are these: Table 2; 100 mg/kg oral gavage, 3 g/kg oral glucose, mice fasted 6 hours. The format is in vivo. As for the experimental part: 8-10 week old male C57BL/6J mice (Harlan) were maintained on regular chow diet from Harlan (2018 Teklad Global). On the day of the experiment mice were fasted for 6 hours, then randomized into groups (n=10-15) to receive the tested GPR120 agonist at doses ranging from 100 mg/kg or the vehicle (1% CMC, 2% TWEEN 80). Compounds were delivered orally via gavage at 10 mL/kg. Blood glucose levels were measured by glucometer (Ascensia Elite XL, Bayer) at time −30 minutes before administration of compound. Blood glucose was measured again after 30 minutes (at time 0), and then the mice were dosed orally with 3 g/kg glucose at 10 mL/kg. […]
Glucose levels were plotted against time, and the incremental area under the curve (AUC) of the glucose excursion was determined from time 0 using Graphpad Prism 5.01. Outliers were excluded using Tukey's box plot outlier test, and statistical significance of differences in AUC of compound treatment compared to vehicle was determined by non-parametric Kruskal-Wallis test with Dunn's post test.
Tables 2 and 3 below show the mean percentage inhibition of the glucose excursion for the fifteen animals tested in each group. The compounds were tested at 100 mg/kg and the levels of blood glucose were determined in the presence and absence of the tested compounds. […]

Another assay concerns the target T1, human GPR120 (Homo sapiens, UniProt Q5NUL3).
T1 construct: Flag (DYKDDDDK) (N); host or cells: HEK293 cells co-expressing Gqi5
T1 sequence (Q5NUL3 1-361): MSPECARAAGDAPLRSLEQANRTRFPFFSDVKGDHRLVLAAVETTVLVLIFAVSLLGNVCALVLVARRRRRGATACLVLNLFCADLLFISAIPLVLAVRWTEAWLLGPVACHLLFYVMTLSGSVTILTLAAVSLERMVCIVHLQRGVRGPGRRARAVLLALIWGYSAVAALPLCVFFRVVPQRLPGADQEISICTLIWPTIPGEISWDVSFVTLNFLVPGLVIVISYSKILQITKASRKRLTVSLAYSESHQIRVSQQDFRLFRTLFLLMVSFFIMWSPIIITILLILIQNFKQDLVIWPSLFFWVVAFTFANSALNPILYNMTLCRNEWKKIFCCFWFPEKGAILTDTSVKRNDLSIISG
In words: Intracellular Ca2+ assay (FLIPR Calcium 4, Flexstation) in human GPR120 stable cell line. The conditions noted are these: % activity at 5 μM compared to the maximal activity of GW9508 at 6.7 μM; HEK293 cells co-expressing Gqi5. The format is cell-based.

Regarding `CC(Cc1ccc(OCc2cc(Cl)cc3c2OC(C)(C)C3)c(F)c1)C(=O)O` (centres unmarked) [Example 10, 3-(4-((5-chloro-2,2-dimethyl-2,3-dihydrobenzofuran-7-yl)methoxy)-3-fluorophenyl)-2-methylpropanoic acid], the “% reduction AUC glucose excursion at 100 mg/kg” value in the assay on C57BL/6J mice was 58.1%.

As to `CC(Cc1ccc(OCc2cccc3c2CC(C)(C)O3)cc1)C(=O)O` (centres unmarked) [Example 17, 3-(4-((2,2-dimethyl-2,3-dihydrobenzofuran-4-yl)methoxy)phenyl)-2-methylpropanoic acid], at human GPR120, the “% Activity (GW9508 Reference Compound)” value turned out to be 72.21%.
